Target: T1, full-length beta-Catenin (Uniprot ID P35222) (Homo sapiens, UniProt P35222)
T1 construct: 10 nM full-length beta-Catenin (Uniprot ID P35222)
T1 sequence (P35222 1-781): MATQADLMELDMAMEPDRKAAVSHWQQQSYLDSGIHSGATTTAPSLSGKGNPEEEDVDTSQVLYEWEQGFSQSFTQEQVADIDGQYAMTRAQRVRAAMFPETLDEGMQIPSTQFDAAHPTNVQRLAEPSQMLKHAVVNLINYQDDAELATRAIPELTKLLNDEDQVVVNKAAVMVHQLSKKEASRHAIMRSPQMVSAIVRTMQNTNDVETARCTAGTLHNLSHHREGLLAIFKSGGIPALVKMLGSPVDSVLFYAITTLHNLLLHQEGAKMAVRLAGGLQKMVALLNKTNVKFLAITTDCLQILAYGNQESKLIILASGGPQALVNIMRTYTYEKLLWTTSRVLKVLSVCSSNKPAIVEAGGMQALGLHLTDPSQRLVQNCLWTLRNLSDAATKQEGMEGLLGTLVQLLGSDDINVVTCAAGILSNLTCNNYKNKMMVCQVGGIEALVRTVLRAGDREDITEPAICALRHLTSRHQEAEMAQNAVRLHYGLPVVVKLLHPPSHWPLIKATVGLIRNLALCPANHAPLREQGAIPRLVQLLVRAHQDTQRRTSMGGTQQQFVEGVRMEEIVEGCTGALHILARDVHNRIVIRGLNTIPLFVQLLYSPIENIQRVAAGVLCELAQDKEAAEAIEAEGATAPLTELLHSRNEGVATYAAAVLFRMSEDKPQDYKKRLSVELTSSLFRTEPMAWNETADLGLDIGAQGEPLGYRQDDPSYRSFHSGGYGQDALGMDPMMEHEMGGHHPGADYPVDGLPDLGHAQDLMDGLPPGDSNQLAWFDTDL
Test: Fluorescence polarization IC50 (beta-catenin / 5FAM-TCF4 10-53 competition)
Type: binding
Conditions: fluorescence polarization; read-out: beta-Catenin FP IC50

In order of falling IC50:
1. CC(=O)N1CCC[C@]12CC=CCCCC1(CCCC=CCCCOC(=O)N3CC[C@@](C(=O)N[C@@H](Cc4ccccc4)C(=O)N[C@@H](Cc4csc5ccccc45)C(=O)N[C@@H](CCC(N)=O)C(N)=O)(C3)NC(=O)[C@H](CC(C)C)NC(=O)[C@H](CO)NC(=O)[C@H](C)NC(=O)[C@H](CCCCNC(C)C)NC(=O)[C@H]([C@@H](C)O)NC(=O)[C@H](CC(=O)O)NC1=O)NC(=O)[C@H](CC(C)(C)C)NC(=O)[C@H](CC(N)=O)NC2=O (stereo partly drawn) [I-1597, Ac-PL3-Asn-Npg-B5-Asp-Thr-iPrLys-Ala-Ser-Leu-PyrS2-Phe-BztA-Gln-NH2]  6.99 µM
2. CC(=O)N1CCC[C@]12CC=CCCCC1(CCCC=CCCCOC(=O)N3CC[C@@](C(=O)N[C@@H](Cc4ccccc4)C(=O)N[C@@H](Cc4csc5ccccc45)C(=O)N[C@@H](CCC(N)=O)C(N)=O)(C3)NC(=O)[C@H](Cc3c[nH]c4ccccc34)NC(=O)[C@H](Cc3ccccc3)NC(=O)[C@H](C)NC(=O)[C@H](CCCCNC(C)C)NC(=O)[C@H]([C@@H](C)O)NC(=O)[C@H](CC(=O)O)NC1=O)NC(=O)[C@H](CC(C)(C)C)NC(=O)[C@H](CC(N)=O)NC2=O (stereo partly drawn) [I-1600, Ac-PL3-Asn-Npg-B5-Asp-Thr-iPrLys-Ala-Phe-Trp-PyrS2-Phe-BztA-Gln-NH2]  4.29 µM
3. CC(=O)N1CCC[C@]12CC=CCCCC1(CCCC=CCCCOC(=O)N3CC[C@@](C(=O)N[C@@H](Cc4ccccc4)C(=O)N[C@@H](Cc4csc5ccccc45)C(=O)N[C@@H](CCC(N)=O)C(N)=O)(C3)NC(=O)[C@H](CC(C)C)NC(=O)[C@H](Cc3ccccc3)NC(=O)[C@H](C)NC(=O)[C@H](CCCCNC(C)C)NC(=O)[C@H](Cc3cccc(C(N)=O)c3)NC(=O)[C@H](CC(=O)O)NC1=O)NC(=O)[C@H](CC(C)(C)C)NC(=O)[C@H](CC(N)=O)NC2=O (stereo partly drawn) [I-1592, Ac-PL3-Asn-Npg-B5-Asp-3cbmf-iPrLys-Ala-Phe-Leu-PyrS2-Phe-BztA-Gln-NH2]  2.85 µM
4. CC(=O)N1CCC[C@]12CC=CCCCC1(CCCC=CCCCOC(=O)N3CC[C@@](C(=O)N[C@@H](Cc4ccsc4)C(=O)N[C@@H](Cc4csc5ccccc45)C(=O)N[C@@H](CCC(N)=O)C(N)=O)(C3)NC(=O)[C@H](CCC(C)C)NC(=O)[C@H](Cc3ccccc3)NC(=O)[C@H](C)NC(=O)[C@H](C)NC(=O)[C@H]([C@@H](C)O)NC(=O)[C@H](CC(N)=O)NC1=O)NC(=O)[C@H](CC(C)(C)C)NC(=O)[C@H](CC(=O)O)NC2=O (stereo partly drawn) [I-1620, Ac-PL3-Asp-Npg-B5-Asn-Thr-Ala-Ala-Phe-hLeu-PyrS2-3Thi-BztA-Gln-NH2]  2.06 µM
5. CC(=O)N1CCC[C@]12CC=CCCCC1(CCCC=CCCCOC(=O)N3CC[C@@](C(=O)N[C@@H](Cc4ccccc4)C(=O)N[C@@H](Cc4csc5ccccc45)C(=O)N[C@@H](CCC(N)=O)C(N)=O)(C3)NC(=O)[C@H](CO)NC(=O)[C@H](Cc3ccccc3)NC(=O)[C@H](C)NC(=O)[C@H](CCCCNC(C)C)NC(=O)[C@H]([C@@H](C)O)NC(=O)[C@H](CC(=O)O)NC1=O)NC(=O)[C@H](CC(C)(C)C)NC(=O)[C@H](CC(N)=O)NC2=O (stereo partly drawn) [I-1601, Ac-PL3-Asn-Npg-B5-Asp-Thr-iPrLys-Ala-Phe-Ser-PyrS2-Phe-BztA-Gln-NH2]  2.02 µM
6. CCCC[C@@H]1NC(=O)[C@H](Cc2ccccc2)NC(=O)[C@H](C)NC(=O)[C@H](C)NC(=O)[C@H]([C@@H](C)O)NC(=O)[C@H](CC(N)=O)NC(=O)C2(CCCC=CCCCOC(=O)N3CC[C@@](C(=O)N[C@@H](Cc4ccsc4)C(=O)N[C@@H](Cc4csc5ccccc45)C(=O)N[C@@H](CCC(N)=O)C(N)=O)(C3)NC1=O)CCCC=CC[C@]1(CCCN1C(C)=O)C(=O)N[C@@H](CC(=O)O)C(=O)N[C@@H](CC(C)(C)C)C(=O)N2 (stereo partly drawn) [I-1619, Ac-PL3-Asp-Npg-B5-Asn-Thr-Ala-Ala-Phe-nLeu-PyrS2-3Thi-BztA-Gln-NH2]  1.29 µM
7. CC(=O)N1CCC[C@]12CC=CCCCC1(CCCC=CCCCOC(=O)N3CC[C@@](C(=O)N[C@@H](Cc4ccccc4)C(=O)N[C@@H](Cc4csc5ccccc45)C(=O)N[C@@H](CCC(N)=O)C(N)=O)(C3)NC(=O)[C@H](Cc3ccccc3)NC(=O)[C@H](Cc3ccccc3)NC(=O)[C@H](C)NC(=O)[C@H](CCCCNC(C)C)NC(=O)[C@H]([C@@H](C)O)NC(=O)[C@H](CC(=O)O)NC1=O)NC(=O)[C@H](CC(C)(C)C)NC(=O)[C@H](CC(N)=O)NC2=O (stereo partly drawn) [I-1599, Ac-PL3-Asn-Npg-B5-Asp-Thr-iPrLys-Ala-Phe-Phe-PyrS2-Phe-BztA-Gln-NH2]  1.07 µM
8. CC(=O)N1CCC[C@]12CC=CCCCC1(CCCC=CCCCCCC[C@@](C)(C(=O)N[C@@H](Cc3ccsc3)C(=O)N[C@@H](Cc3csc4ccccc34)C(=O)N[C@@H](CCC(N)=O)C(N)=O)NC(=O)[C@H](CC(N)=O)NC(=O)[C@H](Cc3ccccc3)NC(=O)[C@H](C)NC(=O)[C@H](C)NC(=O)[C@H]([C@@H](C)O)NC(=O)[C@H](CC(N)=O)NC1=O)NC(=O)[C@H](CC(C)(C)C)NC(=O)[C@H](CC(=O)O)NC2=O (stereo partly drawn) [I-1617, Ac-PL3-Asp-Npg-B5-Asn-Thr-Ala-Ala-Phe-Asn-S8-3Thi-BztA-Gln-NH2]  0.759 µM
9. CC(=O)N1CCC[C@]12CC=CCCCC1(CCCC=CCCCOC(=O)N3CC[C@@](C(=O)N[C@@H](Cc4ccsc4)C(=O)N[C@@H](Cc4csc5ccccc45)C(=O)N[C@@H](CCC(N)=O)C(N)=O)(C3)NC(=O)[C@H]([C@@H](C)O)NC(=O)[C@H](Cc3ccccc3)NC(=O)[C@H](C)NC(=O)[C@H](C)NC(=O)[C@H]([C@@H](C)O)NC(=O)[C@H](CC(N)=O)NC1=O)NC(=O)[C@H](CC(C)(C)C)NC(=O)[C@H](CC(=O)O)NC2=O (stereo partly drawn) [I-1621, Ac-PL3-Asp-Npg-B5-Asn-Thr-Ala-Ala-Phe-Thr-PyrS2-3Thi-BztA-Gln-NH2]  0.266 µM
10. CC(=O)N1CCC[C@]12CCCCCCC1(CCCCCCCCOC(=O)N3CC[C@@](C(=O)N[C@@H](Cc4ccsc4)C(=O)N[C@@H](Cc4csc5ccccc45)C(=O)N[C@@H](CCC(N)=O)C(N)=O)(C3)NC(=O)[C@H](CC(C)C)NC(=O)[C@H](Cc3ccccc3)NC(=O)[C@H](C)NC(=O)[C@H](C)NC(=O)[C@H](CN(CC(=O)O)CC(F)(F)F)NC(=O)[C@H](CC(=O)O)NC1=O)NC(=O)[C@H](CC(C)(C)C)NC(=O)[C@H](CC(=O)O)NC2=O (stereo partly drawn) [I-1605, Ac-PL3-Asp-Npg-B5-Asp-TfeGA-Ala-Ala-Phe-Leu-PyrS2-3Thi-BztA-Gln-NH2]  0.214 µM
11. CC(=O)N1CCC[C@]12CCCCCCC1(CCCCCCCCOC(=O)N3CC[C@@](C(=O)N[C@@H](Cc4ccccc4C(F)(F)F)C(=O)N[C@@H](Cc4csc5ccccc45)C(=O)N[C@@H](CCC(N)=O)C(N)=O)(C3)NC(=O)[C@H](CC(C)C)NC(=O)[C@H](Cc3ccccc3)NC(=O)[C@H](C)NC(=O)[C@H](C)NC(=O)[C@H](Cc3cccc(C(=O)O)c3)NC(=O)[C@H](CC(=O)O)NC1=O)NC(=O)[C@H](CC(C)(C)C)NC(=O)[C@H](CC(=O)O)NC2=O (stereo partly drawn) [I-1604, Ac-PL3-Asp-Npg-B5-Asp-3COOHF-Ala-Ala-Phe-Leu-PyrS2-2F3MeF-BztA-Gln-NH2]  0.123 µM
12. CC(=O)N1CCC[C@]12CCCCCCC1(CCCCCCCCOC(=O)N3CC[C@@](C(=O)N[C@@H](Cc4ccccc4Cl)C(=O)N[C@@H](Cc4csc5ccccc45)C(=O)N[C@@H](CCC(N)=O)C(N)=O)(C3)NC(=O)[C@H]([C@@H](C)O)NC(=O)[C@H](Cc3ccccc3)NC(=O)[C@H](C)NC(=O)[C@H](C)NC(=O)[C@H](CN(CC(=O)O)CC(F)(F)F)NC(=O)[C@H](CC(=O)O)NC1=O)NC(=O)[C@H](CC(C)(C)C)NC(=O)[C@H](CC(=O)O)NC2=O (stereo partly drawn) [I-1606, Ac-PL3-Asp-Npg-B5-Asp-TfeGA-Ala-Ala-Phe-Thr-PyrS2-2C1F-BztA-Gln-NH2]  0.107 µM
13. CC(=O)N1CCC[C@]12CC=CCCCC1(CCCC=CCCCCCC[C@@](C)(C(=O)N[C@@H](Cc3ccsc3)C(=O)N[C@@H](Cc3csc4ccccc34)C(=O)N[C@@H](CCC(N)=O)C(N)=O)NC(=O)[C@H](CC(N)=O)NC(=O)[C@H](Cc3ccccc3)NC(=O)[C@H](C)NC(=O)[C@H](C)NC(=O)[C@H](CN(CC(=O)O)Cc3c(F)c(F)c(F)c(F)c3F)NC(=O)[C@H](CC(=O)O)NC1=O)NC(=O)[C@H](CC(C)(C)C)NC(=O)[C@H](CC(=O)O)NC2=O (stereo partly drawn) [I-1624, Ac-PL3-Asp-Npg-B5-Asp-[Pfbn]GA-Ala-Ala-Phe-Asn-S8-3Thi-BztA-Gln-NH2]  0.0475 µM
14. CCC(C)N(CC(=O)O)C[C@@H]1NC(=O)[C@H](CC(=O)O)NC(=O)C2(CCCC=CCCCOC(=O)N3CC[C@@](C(=O)N[C@@H](Cc4ccccc4Cl)C(=O)N[C@@H](Cc4csc5ccccc45)C(=O)N[C@@H](CCC(N)=O)C(N)=O)(C3)NC(=O)[C@H](CC(N)=O)NC(=O)[C@H](Cc3ccccc3)NC(=O)[C@H](C)NC(=O)[C@H](C)NC1=O)CCCC=CC[C@]1(CCCN1C(C)=O)C(=O)N[C@@H](CC(=O)O)C(=O)N[C@@H](CC(C)(C)C)C(=O)N2 (stereo partly drawn) [I-1623, Ac-PL3-Asp-Npg-B5-Asp-[sBu]GA-Ala-Ala-Phe-Asn-PyrS2-2C1F-BztA-Gln-NH2]  0.03 µM

Source: patent US20240116985A1, “STAPLED PEPTIDES AND METHODS THEREOF” (priority 2020, published 2024)
